Assay results reported in PubChem BioAssay (NCI).
Where “and” joins values, the source holds several entries; their conditions need not be identical. Equal entries are not always repeated.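 Following 48 hours of exposure in 96-well plates, responses at five concentrations were used to interpolate endpoints linearly. The concentration for 50% growth inhibition is given as GI50. At the TGI there is no net growth.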

Experiments:
Assay in all cases: NCI-60 cell line screen, 48 h
UACC-62 melanoma = system: UACC-62 melanoma
RPMI-8226 leukemia = system: RPMI-8226 leukemia
SW-620 colon = system: SW-620 colon
HT29 colon = system: HT29 colon
SNB-75 CNS = system: SNB-75 CNS
PC-3 prostate = system: PC-3 prostate
SN12C renal = system: SN12C renal
MCF7 breast = system: MCF7 breast
IGROV1 ovarian = system: IGROV1 ovarian
OVCAR-5 ovarian = system: OVCAR-5 ovarian

Row | SMILES | GI50 (UACC-62 melanoma) | TGI (UACC-62 melanoma) | GI50 (RPMI-8226 leukemia) | TGI (RPMI-8226 leukemia) | GI50 (SW-620 colon) | TGI (SW-620 colon) | GI50 (HT29 colon) | TGI (HT29 colon) | GI50 (SNB-75 CNS) | TGI (SNB-75 CNS) | GI50 (PC-3 prostate) | TGI (PC-3 prostate) | GI50 (SN12C renal) | TGI (SN12C renal) | GI50 (MCF7 breast) | TGI (MCF7 breast) | GI50 (IGROV1 ovarian) | TGI (IGROV1 ovarian) | GI50 (OVCAR-5 ovarian) | TGI (OVCAR-5 ovarian)
1 | C[C@@H]1O[C@@H](O[C@H]2C[C@@H](O)[C@]3(CO)C4C(CC[C@]3(O)C2)[C@@]2(O)CC[C@H](C3=CC(=O)OC3)[C@@]2(C)C[C@H]4O)[C@H](O)[C@H](O)[C@H]1O (some centres undefined) | 0.0819 µM | 0.151 µM | 0.0672 µM | 1.76 µM | 0.022 µM | 0.0869 µM | 0.0248 µM | 0.0836 µM | 0.0277 µM | 0.0946 µM | 0.0214 µM | 0.113 µM | 0.0178 µM | 0.0844 µM | 0.0244 µM | 0.121 µM | 0.0273 µM | 0.23 µM | 0.0606 µM | 0.127 µM
2 | O=C1C(=O)c2ccc(Br)cc2-c2cc(Br)ccc21 | 15.2 µM | > 64.9 µM | 1.63 µM | 6.82 µM | 0.84 µM | 2.91 µM | > 74.3 µM | > 100 µM | > 54.6 µM | > 100 µM | 20.3 µM | > 96.6 µM | 2.14 µM | 11.2 µM | 2.34 µM | 8.61 µM | 6.57 µM | 29.5 µM | > 41.6 µM | > 62.2 µM
3 | Cc1cc(N(CCCl)CCCl)ccc1C=Nc1cccnc1 | 1.59 µM | 16.1 µM | 21.1 µM | > 100 µM | 61.2 µM | > 100 µM | > 79 µM | > 100 µM | 11.5 µM | > 100 µM | 22.9 µM | > 100 µM | 10.6 µM | > 100 µM | 1.8 µM | > 100 µM | 4.97 µM | > 84.1 µM | 1.86 µM | 15.9 µM
4 | CN(C(=O)c1ccc(F)cc1C(F)(F)F)C1CCN(c2nnc(-c3ccnn3C)c3ccccc23)CC1 | 28.9 µM | > 100 µM | 19.1 µM | > 100 µM | > 100 µM | > 100 µM | 55.5 µM | > 100 µM | 14.5 µM | > 100 µM | 33.3 µM | > 100 µM | 51 µM | > 100 µM | 24.2 µM | > 100 µM | 57.3 µM | > 100 µM | > 100 µM | > 100 µM
5 | Brc1c[n+](Cc2ccc3ccccc3c2)cn1Cc1ccc2ccccc2c1 | 1.24 µM | 2.58 µM | 1.02 µM | 3.06 µM | 1.61 µM | 3.62 µM | 1.19 µM | 3.35 µM | 1.34 µM | 3.03 µM | 1.54 µM | 3.62 µM | 1.52 µM | 2.94 µM | 1.59 µM | 3.39 µM | 0.676 µM | 2.08 µM | 2.13 µM | 8.71 µM
6 | O=C1OCC(c2ccc(O)c(O)c2)=C1c1cc(O)c(O)c(O)c1 | 52.7 µM | > 100 µM | 26.2 µM | 79 µM | 21.1 µM | 42.8 µM | 32.5 µM | 98.2 µM | 54 µM | > 100 µM | 17.9 µM | 43.3 µM | 15.8 µM | 29.6 µM | 36.9 µM | > 100 µM | 37.4 µM | > 100 µM | 17.7 µM | 34.6 µM
7 | Cc1c(Cl)cccc1NC(=O)CC1Sc2ccccc2NC1=O (centres undefined) | 15.2 µM and 38.6 µM | 77.5 µM and > 100 µM |  | > 100 µM | 11 µM and 26.3 µM | 56.8 µM and 77.3 µM |  | 63.3 µM | 4.95 µM and 14.5 µM | 19 µM and 36.5 µM |  | > 86.5 µM |  | 65.6 µM and > 100 µM |  | > 87 µM | 20 µM and 45.1 µM | 65 µM and > 100 µM |  | > 100 µM
8 | OCCN1CCN(CCCN2c3ccccc3Sc3ccc(C(F)(F)F)cc32)CC1 | 0.824 µM and 2.48 µM and 2.08 µM | 1.62 µM and 6.83 µM and 4.44 µM | 1.54 µM | 4.69 µM | 1.93 µM and 11.7 µM and 4.22 µM | 8.01 µM and 25.4 µM and 16.2 µM | 0.897 µM and 4.12 µM and 3.23 µM | 1.78 µM and 13.9 µM and 11 µM | 2.04 µM and 10 µM and 6.62 µM | 9.16 µM and 22.4 µM and 21.8 µM | 1.97 µM and 8.77 µM and 10.3 µM | 8.14 µM and 21.6 µM and 23 µM | 4.49 µM and 11.4 µM and 7.83 µM | 11.4 µM and 26.7 µM and 21.8 µM | 1.2 µM and 6.8 µM and 7.74 µM | 2.92 µM and 22.6 µM and 25.1 µM | 2.57 µM and 11.3 µM and 10.2 µM | 9.32 µM and 28.5 µM and 30.1 µM | 5.68 µM and 11.2 µM and 11.5 µM | 12.2 µM and 25.3 µM and 25.1 µM
9 | CO/N=C(\c1ccccc1)c1cnn(-c2ccccc2)c1N | > 25 µM | > 25 µM | > 25 µM | > 25 µM | > 25 µM | > 25 µM | > 25 µM | > 25 µM | > 25 µM | > 25 µM | > 25 µM | > 25 µM | > 25 µM | > 25 µM | > 25 µM | > 25 µM | > 25 µM | > 25 µM | > 25 µM | > 25 µM
10 | O=C(NO)c1ccc(C(=O)NO)cc1 |  | > 100 µM |  | > 100 µM |  | > 100 µM |  | > 100 µM |  | > 100 µM |  | > 100 µM |  | > 100 µM |  | > 100 µM |  | > 100 µM |  | > 100 µM
11 | Cn1cc(-c2cc3c(Nc4ccc(CC(=O)Nc5cc(C(C)(C)C)on5)cc4)ncnc3[nH]2)cn1 | 0.583 µM and 0.455 µM | 1.71 µM and 1.9 µM | 2.03 µM and 1.07 µM | 5.41 µM and 3.8 µM | 0.871 µM and 0.654 µM | 2.75 µM and 5.73 µM | 1.1 µM and 1.11 µM | 6.95 µM and 9.63 µM | 0.655 µM and 0.133 µM | 1.78 µM and 2.47 µM | 1.59 µM and 0.612 µM | 11.3 µM and 3.58 µM | 0.671 µM and 0.471 µM | 4.05 µM and 4.15 µM | 0.352 µM and 0.259 µM | 10.3 µM and 4.01 µM | 1.1 µM and 0.948 µM | 5.84 µM and 5.24 µM | 1.3 µM and 1.08 µM | 7.18 µM and 6.62 µM
12 | CC1(C)CCC(S(=O)(=O)c2ccc3c(c2)/C(=N\O)c2cc(S(=O)(=O)N4CCC(O)(c5cccc(C(F)(F)F)c5)CC4)ccc2-3)CC1 | 0.0196 µM | 0.0351 µM | 0.0255 µM | 0.09 µM | 0.0154 µM | 0.0319 µM | 0.0257 µM | 0.0723 µM | 0.0158 µM | 0.0349 µM | 0.0238 µM | 0.0585 µM | 0.0612 µM | 2.2 µM | 0.0206 µM | 0.0485 µM | 0.0491 µM | 1.07 µM | 0.0317 µM | 0.148 µM
13 | O=C(c1ccccc1)c1ccc(-c2ccc(O)cc2)cc1 | 0.687 µM | 33.7 µM | 2.7 µM | 18.3 µM | 5.23 µM | > 100 µM | 31.7 µM | > 100 µM | 4.22 µM | 34.5 µM | 9.19 µM | 58 µM | 20.2 µM | > 100 µM | 0.34 µM | 25.2 µM | 3.69 µM | 22.7 µM | 31 µM | > 100 µM
14 | OCC1SC(n2cnc3cncnc32)C(O)C1O (centres undefined) | > 100 µM | > 100 µM | > 100 µM | > 100 µM | > 100 µM | > 100 µM | > 100 µM | > 100 µM | > 100 µM | > 100 µM | > 100 µM | > 100 µM | > 100 µM | > 100 µM | > 100 µM | > 100 µM | > 100 µM | > 100 µM | > 100 µM | > 100 µM
